Measurements published in US20260231945A1, “NEMATICIDAL COMPOUNDS, THEIR COMPOSITION AND USE THEREOF” (priority 2023, published 2026).

How the values were obtained:
[1] = Stability studies: storage at room temperature and under accelerated storage condition (ATS), purity estimated by HPLC; type: physicochemical; conditions: properly packed material; for purity estimated by HPLC, Day 14 Condition 54° C. ± 2° C. / purity estimated by HPLC, Day Zero Condition 54° C. ± 2° C.: 54° C. ± 2° C. (accelerated storage)
Source text: The properly packed material was subjected to the conditions mentioned in the table below (Table 5).

[2] = tested on: Root-knot nematodes Meloidogyne spp. juveniles (J2); assay: whole plant or invertebrate; type: in vivo; conditions: 70-100 J2 juveniles, 22±2° C., 70±5% RH, dead/inactive counted at 24, 48, 72 and 96 hours (time of rating not stated); for mortality at 500 ppm: Meloidogyne
Procedure: The compound to be tested (4 mg) was dissolved in 40 μl of DMSO to make 100,000 PPM concentration stock solution. […] The nematode suspension (250 μl) having 70-100 juveniles (J2) of Root-knot nematodes Meloidogyne spp. pipetted out to each cell of 24 well bioassay plate. Sterile water (1 ml) was pipetted out in fresh 2.5 ml Eppendorf micro-centrifuge tubes. The desired concentration (500 ppm) of the compound was prepared by adding stock solution in 2.5 ml Eppendorf micro-centrifuge tubes. For each treatment 4 replications were maintained. The bioassay plates were incubated at 22±2° C. and 70±5% RH in humidity chambers.

| Structure (SMILES) | purity estimated by HPLC, Day 14 Condition 25° C. ± 2° C. [1] | purity estimated by HPLC, Day 14 Condition 54° C. ± 2° C. [1] | purity estimated by HPLC, Day Zero Condition 25° C. ± 2° C. [1] | purity estimated by HPLC, Day Zero Condition 54° C. ± 2° C. [1] | mortality at 500 ppm [2] | % Mortality Rating ([2]; 500 ppm) |
| --- | --- | --- | --- | --- | --- | --- |
| N=C(N)NCCC[C@H](/N=C/C=C/c1ccccc1)C(=O)O [Example 9, (E)-N^2-[(2E)-3-phenylprop-2-en-1-ylidene]-L-arginine] | 99.59 | 99.64 | 99.60 | 99.63 | 70 to 100% |  |
| N#Cc1ccc(C=CC=NC(CCCNC(=N)N)C(=O)O)c(C(F)(F)F)c1 (stereo not drawn) [Example 39] | 99.55 | 99.60 | 99.40 | 99.40 |  | A (70-100) |
| N=C(N)NCCC[C@H](/N=C/C=C/c1ccc2ccccc2c1)C(=O)O [Example 24, (E)-N^2-[(2E)-3-(naphthalen-2-yl)prop-2-en-1-ylidene]-L-arginine] | 98.85 | 98.90 | 98.90 | 98.75 | 50 to 69% |  |
